As usually defined, the IC50 is the midpoint of a concentration-inhibition curve.

For one assay, the system named is IL-12 production. The experiment in a line: In vitro Assay for IL-12 Inhibition (IL-12 production by THP-1 cells or human peripheral whole blood, ELISA). To be noted: Homo sapiens, THP-1, 48 h, read-out: IC50 values for the inhibition of IL-12 production. The format is cell-based. In general terms: In an ELISA, binding on a coated surface is turned into a signal by an enzyme label.
On to `C=C1/C(=C\C=C2/CCC[C@]3(C)[C@@H]([C@H](C)CCCC(C)(C)O)CC[C@@H]23)C[C@@H](O)C[C@@H]1O` [Calcitriol, reference compound], for which the IC50 worked out at 60 nM.

The assay is the same for the next values; noted with them: THP-1 cells stimulated with SAC and huIFN-γ (1000 U/ml), or alternatively human peripheral whole blood primed with huIFN-γ then SAC; supernatants after 48 hours; IL-12 by ELISA; read-out: IC50 values for the inhibition of IL-12 production.
`C=C1C(=CC=C2CCCC3(C)C2CCC3C(C)CC=CC=CC(C)(C)O)CC(O)CC1O` [Example 1, (5Z,7E ,23E,24aE)-(1R,3S)-24a,24b-dihomo-9,10-seco-cholesta-5,7,10(19),23,24a-pentaene-1,3,25-triol]: the IC50 came out at 10 nM. On the same count and under the same terms, with `C=C1/C(=C\C=C2/CCC[C@]3(C)[C@@H]([C@H](C)C/C=C/C=C/C(C)(C)O)CC[C@@H]23)C[C@H](O)C[C@@H]1O` [Example 3, (5Z,7E,23E,24aE)-(1S,3S)-24a,24b-Dihomo-9,10-seco-cholesta-5,7,10(19),23,24a-pentaene-1,3,25-triol] the figure was 30 nM; with `C=C1/C(=C\C=C2/CCC[C@]3(C)[C@@H]([C@H](C)C/C=C/C=C/C(C)(C)O)CCC[C@@H]23)C[C@@H](O)C[C@@H]1O` [Example 4, (5Z,7E,23E,24aE)-(1S,3R)-17a,24a,24b-trihomo-9,10-seco-cholesta-5,7,10(19),23,24a-pentaene-1,3,25-triol], 1 nM.

Consider `C=C1/C(=C\C=C2/CCC[C@]3(C)C([C@H](C)C/C=C/C=C/C(C)(C)O)=CCC[C@@H]23)C[C@@H](O)C[C@@H]1O` [Example 8, (5Z,7E,23E,24aE)-(1S,3R)-17a,24a,24b-Trihomo-9,10-seco-cholesta-5,7,10(19),17,23,24a-hexaene-1,3,25-triol], for which the half-inhibitory concentration (IC50) is 1 nM. On to `C[C@H](CC=CC#CC(C)(C)O)[C@H]1CC[C@H]2/C(=C/C=C3C[C@@H](O)C[C@H](O)C3)CCC[C@]12C` [Example 13a, (7E,23E)- and (7E,23Z)-(1R,3R)-24a,24b-dihomo-19-nor-9,10-seco-cholesta-5,7,23-trien-24a-yne-1,3,25-triol], for which the half-maximal inhibitory concentration (IC50) came to 10 nM. For the compound `C[C@H](CC=CC#CC1(O)CCCC1)[C@H]1CC[C@H]2/C(=C/C=C3C[C@@H](O)C[C@H](O)C3)CCC[C@]12C` [Example 13c, (7E,23E)- and (7E,23Z)-(1R,3R)-25-(1-hydroxy-cyclopentyl)-24a,24b-dihomo-19-nor-9,10-seco-cholesta-5,7,23-trien-24a-yne-1,3,25-diol], the IC50 amounted to 10 nM. Same read-out and setting: the figure for `C[C@H](CC=CC#CC(O)(C(F)(F)F)C(F)(F)F)[C@H]1CC[C@H]2/C(=C/C=C3C[C@@H](O)C[C@H](O)C3)CCC[C@]12C` [Example 13d, (7E,23E)- and (7E,23Z)-(1R,3R)-26,26,26,27,27,27-hexafluoro-24a,24b-dihomo-19-nor-9,10-seco-cholesta-5,7,23-trien-24a-yne-1,3,25-triol] is 10 nM; for `CCC(O)(/C=C/C=CC[C@@H](C)[C@H]1CC[C@H]2/C(=C/C=C3C[C@@H](O)C[C@H](O)C3)CCC[C@]12C)CC` [Example 13e, (7E,23E24aE)- and (7E,23Z,24aE)-(1R,3R)-24a,24b,26a,26b-tetrahomo-19-nor-9,10-seco-cholesta-5,7,23,24a-tetraen-24a-yne-1,3,25-triol] it is 1 nM; for `C[C@H](CC=C/C=C/C1(O)CCCC1)[C@H]1CC[C@H]2/C(=C/C=C3C[C@@H](O)C[C@H](O)C3)CCC[C@]12C` [Example 13f, (7E,23E,24aE)- and (7E,23Z,24aE)-(1R,3R)-25-(1-hydroxy-cyclopentyl)-24a,24b-dihomo-19-nor-9,10-seco-cholesta-5,7,23,24a-tetraen-24a-yne-1,3,25-diol] it is 10 nM.

Values taken from patent US5994569A, “Dihomo-seco-cholestanes” (Hoffmann-La Roche Inc., priority 1997, dated 1999).
